In US20250255867A1 (Kadmon Corporation, LLC, priority 2022, published 2025):
Counter-ions that a name gives are not always drawn.

Experiments:
[1] = Example 1: plasma pharmacokinetics (Cmax, Tmax, AUC0-6 hr) of belumosudil and metabolites; type: in vivo, human
Description: Cmax was the maximum observed plasma concentration, obtained by a non-compartmental analysis. […] Timeframe: Cycles 1 and 2: pre-dose (0 hour), 1, 2, 3, 4, 5, and 6 hours post-dose on Day 1. […] Here, ‘number analyzed’=participants with available data for each specified category.
Tmax was defined as time to reach maximum observed plasma concentration, obtained by a non-compartmental analysis. […] Timeframe: Cycles 1 and 2: pre-dose (0 hour), 1, 2, 3, 4, 5, and 6 hours post-dose on Day 1. Analysis was performed on PK population. Here, ‘number analyzed’=participants with available data for each specified category.
AUC0-6 hr was defined as area under the plasma concentration versus time curve from time 0 to 6 hours post-dose, obtained by a non-compartmental analysis from the concentration-time data. […] Timeframe: Cycles 1 and 2: pre-dose (0 hour), 1, 2, 3, 4, 5, and 6 hours post-dose on Day 1. Analysis was performed on PK population. Here, ‘number analyzed’=participants with available data for each specified category.

[2] = Solubility of belumosudil mesylate; type: physicochemical
[3] = Cohort 1: Belumosudil 200 mg QD, Cycle 1 Day 1
[4] = Cohort 1: Belumosudil 200 mg QD, Cycle 2 Day 1
[5] = Cohort 2: Belumosudil 200 mg BID, Cycle 1 Day 1
[6] = Cohort 2: Belumosudil 200 mg BID, Cycle 2 Day 1
[7] = Cohort 3: Belumosudil 400 mg QD, Cycle 1 Day 1
[8] = Cohort 3: Belumosudil 400 mg QD, Cycle 2 Day 1

Row | SMILES | Area Under the Plasma Concentration Versus Time Curve From Time 0 to 6 Hours Post-dose (AUC0-6 hr), Geometric Mean (Geometric Coefficient of Variation) [1, 3] | Maximum Observed Plasma Concentration (Cmax), Geometric Mean (Geometric Coefficient of Variation) [1, 3] | Area Under the Plasma Concentration Versus Time Curve From Time 0 to 6 Hours Post-dose (AUC0-6 hr), Geometric Mean (Geometric Coefficient of Variation) [1, 4] | Maximum Observed Plasma Concentration (Cmax), Geometric Mean (Geometric Coefficient of Variation) [1, 4] | Area Under the Plasma Concentration Versus Time Curve From Time 0 to 6 Hours Post-dose (AUC0-6 hr), Geometric Mean (Geometric Coefficient of Variation) [1, 5] | Maximum Observed Plasma Concentration (Cmax), Geometric Mean (Geometric Coefficient of Variation) [1, 5] | Area Under the Plasma Concentration Versus Time Curve From Time 0 to 6 Hours Post-dose (AUC0-6 hr), Geometric Mean (Geometric Coefficient of Variation) [1, 6] | Maximum Observed Plasma Concentration (Cmax), Geometric Mean (Geometric Coefficient of Variation) [1, 6] | Area Under the Plasma Concentration Versus Time Curve From Time 0 to 6 Hours Post-dose (AUC0-6 hr), Geometric Mean (Geometric Coefficient of Variation) [1, 7] | Maximum Observed Plasma Concentration (Cmax), Geometric Mean (Geometric Coefficient of Variation) [1, 7] | Area Under the Plasma Concentration Versus Time Curve From Time 0 to 6 Hours Post-dose (AUC0-6 hr), Geometric Mean (Geometric Coefficient of Variation) [1, 8] | Maximum Observed Plasma Concentration (Cmax), Geometric Mean (Geometric Coefficient of Variation) [1, 8] | Solubility in DMF [2] | Solubility in DMSO [2] | Solubility in methanol [2] | Solubility in water [2]
1 | NC(=O)COc1cccc(-c2nc(Nc3ccc4[nH]ncc4c3)c3ccccc3n2)c1 [KD025m1] | 140 (72.3%) hours*nanograms per milliliter | 44.4 (67.9%) nanograms per milliliter | 123 (38.2%) hours*nanograms per milliliter | 36.2 (43.0%) nanograms per milliliter | 114 (60.8%) hours*nanograms per milliliter | 34.8 (58.8%) nanograms per milliliter | 160 (31.3%) hours*nanograms per milliliter | 45.0 (38.6%) nanograms per milliliter | 216 (61.9%) hours*nanograms per milliliter | 63.9 (59.4%) nanograms per milliliter | 178 (72.9%) hours*nanograms per milliliter | 55.8 (82.1%) nanograms per milliliter |  |  |  | 
2 | CC(C)NC(=O)COc1cccc(-c2nc(Nc3ccc4[nH]ncc4c3)c3ccccc3n2)c1 [Belumosudil mesylate, 2-{3-[4-(1H-indazol-5-ylamino)-2-quinazolinyl]phenoxy}-N-(propan-2-yl) acetamide methanesulfonate (1:1)] |  |  |  |  |  |  |  |  |  |  |  |  | slightly soluble | soluble | slightly soluble | practically insoluble
3 | O=C(O)COc1cccc(-c2nc(Nc3ccc4[nH]ncc4c3)c3ccccc3n2)c1 [KD025m2] | 565 (90.8%) hours*nanograms per milliliter | 208 (93.1%) nanograms per milliliter | 471 (145%) hours*nanograms per milliliter | 158 (150%) nanograms per milliliter | 282 (125%) hours*nanograms per milliliter | 99.2 (112%) nanograms per milliliter | 513 (122%) hours*nanograms per milliliter | 145 (147%) nanograms per milliliter | 1150 (97.1%) hours*nanograms per milliliter | 388 (82.3%) nanograms per milliliter | 923 (144%) hours*nanograms per milliliter | 265 (154%) nanograms per milliliter |  |  |  | 
